Our source for the AC1.4 values is patent publication US11780826B2 (Amgen Inc., priority 2017, dated 2023).

This test relates to Bovine cardiac myofibrils. In words: In vitro model of dose-dependent myofibril ATPase modulation (AC1.4, pyruvate kinase/lactate dehydrogenase-coupled ATPase assay at pCa25). Format: biochemical. Conditions: concentration at which ATPase activity was 1.4-fold higher than the bottom of the dose curve, mean of a minimum of two independent tests. A digest of the protocol: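 We measure calcium-buffered ATPase activity of detergent-skinned bovine cardiac myofibrils at pH 6.80 and 22° C with 1 mM ATP, using a PK/LDH-coupled NADH readout at 340 nm. Values come from four-parameter dose-response fits, averaged over at least two independent runs.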

In the case of `C[C@@H](NC(=O)[C@H]1CCCN1C(=O)[C@@H]1CN(S(=O)(=O)N2CC(C#N)C2)CCN1)c1ccc(Cl)cc1` [Example 511, N-((1R)-1-(4-chlorophenyl)ethyl)-1-(((2S)-4-((3-cyano-1-azetidinyl)sulfonyl)-2-piperazinyl)carbonyl)-D-prolinamide], the AC1.4 came out at 2.4195 µM.

The molecule `CS(=O)(=O)c1cncc(C(=O)N2C[C@H]3C[C@H]3[C@@H]2C(=O)N[C@@H](c2cc(F)c(Cl)cc2F)C2CC2)c1` [Example 512, (1R,2R,5S)-N-((R)-(4-chloro-2,5-difluorophenyl)(cyclopropyl)methyl)-3-((5-(methylsulfonyl)-3-pyridinyl)carbonyl)-3-azabicyclo[3.1.0]hexane-2-carboxamide] registered an AC1.4 of 2.252 µM.

Molecule `CCS(=O)(=O)c1cccc(C(=O)N2[C@@H](C(=O)N[C@H](C)c3cc(F)c(Cl)cc3F)C[C@H]3C[C@H]32)c1` [Example 513, (1R,3R,5R)-N-((1R)-1-(4-chloro-2,5-difluorophenyl)ethyl)-2-(3-(ethylsulfonyl)benzoyl)-2-azabicyclo[3.1.0]hexane-3-carboxamide] yielded an AC1.4 of 2.3655 µM.

For the molecule `N#CC1CN(S(=O)(=O)N2CCCC(F)(C(=O)N3CCC[C@@H]3C(=O)NCc3ccc(C(F)(F)F)cc3)C2)C1` (stereo partly drawn) [Example 514, (2R)-1-(1-((3-cyanoazetidin-1-yl)sulfonyl)-3-fluoropiperidine-3-carbonyl)-N-(4-(trifluoromethyl)benzyl)pyrrolidine-2-carboxamide], the AC1.4 came out at 2.433 µM.

Take `N#CC1CN(S(=O)(=O)N2CCC[C@H](C(=O)N3CCC[C@@H]3C(=O)NCc3ncc(C(F)(F)F)cc3F)C2)C1` [Example 515, 1-(((3S)-1-((3-cyano-1-azetidinyl)sulfonyl)-3-piperidinyl)carbonyl)-N-((3-fluoro-5-(trifluoromethyl)-2-pyridinyl)methyl)-D-prolinamide]: the AC1.4 worked out at 2.441 µM.

In turn, `N#CC1CN(S(=O)(=O)N2CCC[C@H](C(=O)N3CCC[C@@H]3C(=O)NCc3cccc(F)c3F)C2)C1` [Example 516, 1-(((3S)-1-((3-cyano-1-azetidinyl)sulfonyl)-3-piperidinyl)carbonyl)-N-(2,3-difluorobenzyl)-D-prolinamide] yielded an AC1.4 of 2.446 µM.

Molecule `N#CC1CN(S(=O)(=O)N2CCO[C@H](C(=O)N3CCC[C@@H]3C(=O)NCc3cc(F)cc(F)c3)C2)C1` [Example 517, 1-(((2S)-4-((3-cyano-1-azetidinyl)sulfonyl)-2-morpholinyl)carbonyl)-N-(3,5-difluorobenzyl)-D-prolinamide] had an AC1.4 of 2.4485 µM.

With `COC(=O)C1CC(S(=O)(=O)N2CCC[C@H](C(=O)N3CCC[C@@H]3C(=O)NCc3ccc(C(F)(F)F)cc3)C2)C1` (stereo partly drawn) [Example 518, methyl3-(((S)-3-((R)-2-((4-(trifluoromethyl)benzyl)carbamoyl)pyrrolidine-1-carbonyl)piperidin-1-yl)sulfonyl)cyclobutanecarboxylate], the AC1.4 came to 2.457 µM.

In turn, `CN1CC(C(NC(=O)[C@H]2C[C@H]3C[C@H]3N2C(=O)c2cccc(S(C)(=O)=O)c2)c2ccc(C(F)(F)F)cc2F)CC1=O` (stereo partly drawn) [Example 519, (1R,3R,5R)-N-((2-fluoro-4-(trifluoromethyl)phenyl)(1-methyl-5-oxopyrrolidin-3-yl)methyl)-2-(3-(methylsulfonyl)benzoyl)-2-azabicyclo[3.1.0]hexane-3-carboxamide] registered an AC1.4 of 2.367 µM.

As for `Cc1ccc(CNC(=O)[C@H]2CCCN2C(=O)c2cccc(S(=O)(=O)N3CC(C#N)C3)c2)nc1` [Example 520, 1-(3-((3-cyano-1-azetidinyl)sulfonyl)benzoyl)-N-((5-methyl-2-pyridinyl)methyl)-D-prolinamide], the AC1.4 worked out at 2.5075 µM.

Molecule `CCNc1ccccc1C(=O)N1CCC[C@@H]1C(=O)N[C@@H](c1ccc(C(F)(F)F)cc1F)C1CC1` [Example 521, N-((R)-cyclopropyl(2-fluoro-4-(trifluoromethyl)phenyl)methyl)-1-(2-(ethylamino)benzoyl)-D-prolinamide] displayed an AC1.4 of 2.551 µM.

With `CCS(=O)(=O)c1cccc(C(=O)N2[C@@H](C(=O)N[C@@H](c3ccc(C(F)(F)F)cc3)C3(O)CCC3)C[C@H]3C[C@H]32)c1` [Example 522, (1R,3R,5R)-2-(3-(ethylsulfonyl)benzoyl)-N-((S)-(1-hydroxycyclobutyl)(4-(trifluoromethyl)phenyl)methyl)-2-azabicyclo[3.1.0]hexane-3-carboxamide], the AC1.4 came out at 2.4145 µM.

As to `O=C(N[C@@H](c1ccc(C(F)(F)F)cc1F)C1CC1)[C@H]1CCCN1C(=O)c1cccc(C(O)(O)C(F)(F)F)c1` [Example 523, (R)—N—((R)-cyclopropyl(2-fluoro-4-(trifluoromethyl)phenyl)methyl)-1-(3-(2,2,2-trifluoro-1,1-dihydroxyethyl)benzoyl)pyrrolidine-2-carboxamide], the AC1.4 was found to be 2.582 µM.

Turning to `N#CC1CN(S(=O)(=O)N2CCC[C@H](C(=O)N3CCC[C@@H]3C(=O)NC(c3cc(F)ccc3F)C(F)F)C2)C1` (stereo partly drawn) [Example 524, (2R)-1-((S)-1-((3-cyanoazetidin-1-yl)sulfonyl)piperidine-3-carbonyl)-N-(1-(2,5-difluorophenyl)-2,2-difluoroethyl)pyrrolidine-2-carboxamide], the AC1.4 stood at 2.583 µM.

Take `CS(=O)(=O)c1cccc(C(=O)N2CCC(F)(F)CC2C(=O)N[C@@H](c2ccc(C(F)(F)F)cc2F)C2CC2)c1` (stereo partly drawn) [Example 525, N-((R)-cyclopropyl(2-fluoro-4-(trifluoromethyl)phenyl)methyl)-4,4-difluoro-1-(3-(methylsulfonyl)benzoyl)piperidine-2-carboxamide]: the AC1.4 is 2.4285 µM.

As to `CS(=O)(=O)c1ccnc(C(=O)N2CCC[C@@H]2C(=O)N[C@@H](c2ccc(C(F)(F)F)cc2F)C2CC2)c1` [Example 526, N-((R)-cyclopropyl(2-fluoro-4-(trifluoromethyl)phenyl)methyl)-1-((4-(methylsulfonyl)-2-pyridinyl)carbonyl)-D-prolinamide], the AC1.4 was 2.5923 µM.

For the molecule `O=C(N[C@@H](c1ccc(C(F)(F)F)cc1F)C1COC1)[C@H]1C[C@H]2C[C@H]2N1C(=O)c1cncc(C(F)(F)F)c1` [Example 527, (1R,3R,5R)-N-((R)-(2-fluoro-4-(trifluoromethyl)phenyl)(3-oxetanyl)methyl)-2-((5-(trifluoromethyl)-3-pyridinyl)carbonyl)-2-azabicyclo[3.1.0]hexane-3-carboxamide], the AC1.4 stood at 2.5985 µM.

In turn, `CS(=O)(=O)c1cccc(C(=O)N2C[C@@H](F)C[C@@H]2C(=O)N[C@@H](c2ccc(C(F)(F)F)cc2F)C2COC2)c1` [Example 528, (4S)-4-fluoro-N-((R)-(2-fluoro-4-(trifluoromethyl)phenyl)(3-oxetanyl)methyl)-1-(3-(methylsulfonyl)benzoyl)-D-prolinamide] gave an AC1.4 of 2.4294 µM.

In turn, `O=C(N[C@@H](c1cc(F)c(Cl)cc1F)C1COC1)[C@H]1C[C@H]2C[C@H]2N1C(=O)c1cccc(C(F)(F)F)n1` [Example 529, (1R,3R,5R)-N-((R)-(4-chloro-2,5-difluorophenyl)(3-oxetanyl)methyl)-2-((6-(trifluoromethyl)-2-pyridinyl)carbonyl)-2-azabicyclo[3.1.0]hexane-3-carboxamide] displayed an AC1.4 of 2.4895 µM.

For the molecule `O=C(N[C@@H](c1ccc(C(F)(F)F)cc1F)C1CC1)[C@H]1CCCN1C(=O)c1cccc(C2CCC2)c1` [Example 530, 1-(3-cyclobutylbenzoyl)-N-((R)-cyclopropyl(2-fluoro-4-(trifluoromethyl)phenyl)methyl)-D-prolinamide], the AC1.4 was 2.614 µM.

With `NS(=O)(=O)c1cccc(C(=O)N2C[C@@H](F)C[C@@H]2C(=O)N[C@@H](c2ccc(C(F)(F)F)cc2F)C2CC2)c1` [Example 531, (4S)-N-((R)-cyclopropyl(2-fluoro-4-(trifluoromethyl)phenyl)methyl)-4-fluoro-1-(3-sulfamoylbenzoyl)-D-prolinamide], the AC1.4 was 2.553 µM.

Molecule `N#CC1CN(S(=O)(=O)N2CCC[C@H](C(=O)N3CCC[C@@H]3C(=O)NCc3cc(Cl)cc(C(F)(F)F)c3)C2)C1` [Example 532, N-(3-chloro-5-(trifluoromethyl)benzyl)-1-(((3S)-1-((3-cyano-1-azetidinyl)sulfonyl)-3-piperidinyl)carbonyl)-D-prolinamide] displayed an AC1.4 of 2.6285 µM.

The molecule `NC(=O)C1(c2cccc(C(=O)N3CCC[C@@H]3C(=O)N[C@@H](c3ccc(C(F)(F)F)cc3F)C3CC3)c2)CC1` [Example 533, 1-(3-(1-carbamoylcyclopropyl)benzoyl)-N-((R)-cyclopropyl(2-fluoro-4-(trifluoromethyl)phenyl)methyl)-D-prolinamide] displayed an AC1.4 of 2.5883 µM.

`C[C@@H](NC(=O)[C@H]1C[C@H]2C[C@H]2N1C(=O)c1cccc(S(C)(=O)=O)c1)c1cc(F)c(Cl)cc1F` [Example 534, (1R,3R,5R)-N-((1R)-1-(4-chloro-2,5-difluorophenyl)ethyl)-2-(3-(methylsulfonyl)benzoyl)-2-azabicyclo[3.1.0]hexane-3-carboxamide] returned an AC1.4 of 2.611 µM.

`O=C(NCc1ccc(C(F)(F)F)cc1)[C@H]1CCCN1C(=O)[C@H]1CCCN(S(=O)(=O)N2CC(OC(F)(F)F)C2)C1` [Example 535, 1-(((3S)-1-((3-(trifluoromethoxy)-1-azetidinyl)sulfonyl)-3-piperidinyl)carbonyl)-N-(4-(trifluoromethyl)benzyl)-D-prolinamide] showed an AC1.4 of 2.69 µM.

Molecule `CCCCCOC1CN(S(=O)(=O)N2CCC[C@H](C(=O)N3CCC[C@@H]3C(=O)NCc3ccc(C(F)(F)F)cc3)C2)C1` [Example 536, 1-(((3S)-1-((3-(pentyloxy)-1-azetidinyl)sulfonyl)-3-piperidinyl)carbonyl)-N-(4-(trifluoromethyl)benzyl)-D-prolinamide] showed an AC1.4 of 2.696 µM.
